Measurements as given in US20250326744A1, “PIPERAZINE DERIVATIVE OR SALT THEREOF, AND PHARMACEUTICAL COMPOSITION” (priority 2022, published 2025).
Structures can show the parent of a compound that is named as a salt.

Key:
mexY (EC) strain = test: Efflux ability inhibition effect on drug efflux pump MexY (Test Examples 1 and 3): proliferation (OD595) of mexY (EC) strain with EM or LVFX at 1/4 MIC, EC75; type: cell-based, Escherichia coli; settings: for EC75, mexY (EC) strain, EM: combined with EM at 1/4 MIC; for EC75, mexY (EC) strain, LVFX: combined with LVFX at 1/4 MIC
Method: The efflux ability inhibition effect of the test compound on the drug efflux pump was evaluated using the bacterial proliferative ability in the presence of EM or LVFX as an index.
EM is a macrolide antibacterial agent and is a drug that is discharged outside the bacteria by MexB and MexY LVFX is a quinolone antibacterial agent and is a drug that is discharged outside the bacteria by MexB and MexY In a case where the test compound has an efflux ability inhibitory ability against the drug efflux pump, the proliferation of bacteria is suppressed by the combined use of EM or LVFX and the test compound, as compared with the case where EM or LVFX is used alone.
A mutant strain (hereinafter, referred to as an “mexB (EC) strain”) obtained by transferring the genes of the main multidrug efflux system MexAB-OprM of Pseudomonas aeruginosa described in Nature, 2013, Vol. 500, pp. 102 to 106 as a plasmid into Escherichia coli strains in which the acrB and tolC genes of the multidrug efflux system AcrAB-TolC were deleted as described in Journal of Infection and Chemotherapy 2008, Vol. 14, pp. 23 to 29, and a gene transfer strain (hereinafter, referred to as an “mexY (EC) strain”) of another main multidrug efflux system MexXY-OprM of Pseudomonas aeruginosa were used for the evaluation of test compounds.
In the mexB (EC) strain, an expression level of MexB of the drug efflux pump is accelerated, and in the mexY (EC) strain, an expression level of MexY of the drug efflux pump is accelerated.
For culturing each Escherichia coli strain, a 96-well plate (amount of culture medium per well: 100 μL) was used and Luria-Bertani broth (LB) culture medium was used. The inoculation amount of the bacteria was set to 10^4 to 5 CFU/well.
The mexB (EC) strain and the mexY (EC) strain were cultured for 16 to 20 hours in a culture medium to which EM or LVFX and test compounds at various concentrations (0 to 800 μM) were added, and the proliferation of the bacterial strains was evaluated by optical turbidity at 595 nm (OD595). The concentration of the antibacterial agents (EM and LVFX) in the culture medium were each set to ¼ of the minimum inhibitory concentration (MIC) (hereinafter, referred to as ¼ MIC) of the single antibacterial agent.
The proliferation of bacteria in a case where the antibacterial agent was added at the concentration of ¼ MIC in a case where the test compound was not added was measured, and compared with the proliferation of bacteria in a case where the test compound was contained, and the lowest concentration of the test compound at which the proliferation was inhibited by 75% or more was defined as the drug efflux pump inhibitory ability of the test compound as 75% inhibitory effect concentration (EC75).
The drug efflux pump inhibitory ability of each test compound in a case of being used in combination with the antibacterial agent against the mexB (EC) strain and the mexY (EC) strain was evaluated as follows according to the value of EC75. • S: EC75≤[…] • A: 12.5 μM<EC75≤25 μM • B: 25 μM<EC75≤100 μM • C: […]
In the same manner as in Test Example 1, the efflux ability inhibition effect of the test compound on the drug efflux pump was evaluated using the bacterial proliferation ability in the presence of EM or LVFX as an index.

mexB (PA) strain = test: Combinational effect with antibacterial agent against Pseudomonas aeruginosa (Test Examples 2 and 4): mexB (PA) strain with LVFX, TC or AZT at 1/4 MIC, EC99; type: cell-based; settings: for EC99, mexB (PA), AZT / EC99, combinational effect with AZT, mexB (PA): combined with AZT at 1/4 MIC; for EC99, mexB (PA), LVFX / EC99, combinational effect with LVFX, mexB (PA): combined with LVFX at 1/4 MIC; for EC99, combinational effect with AZT, mexB (PA) / EC99, combinational effect with LVFX, mexB (PA) / EC99, combinational effect with TC, mexB (PA): mexB (PA) strain, Test Example 4
In short: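 P. aeruginosa mexB (PA) strain, lacking MexCD-OprJ, MexEF-OprN and MexXY and overexpressing MexAB-OprM, grown 16–20 h in CAMHB (10^4–5 CFU/well) with LVFX, TC or AZT at ¼ MIC plus test compound at 0–800 μM. Growth read as OD595; EC99 is the lowest compound concentration giving ≥99% growth inhibition.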

S-3769 strain = test: Combinational effect with antibacterial agent against Pseudomonas aeruginosa (Test Examples 2 and 4): S-3769 strain with AMK or GM at 1/4 MIC, EC99; type: cell-based; settings: for EC99, combinational effect with AMK, S-3769 strain / EC99, combinational effect with GM, S-3769 strain: Test Example 4
In short: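 P. aeruginosa S-3769 (clinical isolate, MexY overexpressed) grown 16–20 h in CAMHB, 10^4 to 5 CFU/well, with AMK or GM at ¼ MIC plus test compound 0–800 μM. Growth read as OD595; EC99 is the lowest compound concentration giving ≥99% growth inhibition.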

[1] = Table 51, Test Example 1, 16 to 20 hours culture, OD595
[2] = Table 52, Test Example 2, 16 to 20 hours culture, OD595
[3] = Table 53, Test Example 3, same manner as Test Example 1

| SMILES | EC75, mexY (EC) strain, EM (mexY (EC) strain; [1]) | EC75, mexY (EC) strain, LVFX (mexY (EC) strain; [1]) | EC99, mexB (PA), AZT (mexB (PA) strain; [2]) | EC99, mexB (PA), LVFX (mexB (PA) strain; [2]) | EC99, S-3769 strain, AMK (S-3769 strain; Table 52, Test Example 2, combined with AMK at 1/4 MIC, 16 to 20 hours culture, OD595) | EC99, S-3769 strain, GM (S-3769 strain; Table 52, Test Example 2, combined with GM at 1/4 MIC, 16 to 20 hours culture, OD595) | EC99, mexB (PA), TC (mexB (PA) strain; Table 52, Test Example 2, combined with TC at 1/4 MIC, 16 to 20 hours culture, OD595) | EC99, combinational effect with AMK, S-3769 strain (S-3769 strain; combined with AMK at 1/4 MIC) | EC99, combinational effect with GM, S-3769 strain (S-3769 strain; combined with GM at 1/4 MIC) | EC75, mexY (EC) strain, EM (mexY (EC) strain; [3]) | EC99, combinational effect with AZT, mexB (PA) (mexB (PA) strain) | EC99, combinational effect with LVFX, mexB (PA) (mexB (PA) strain) | EC99, combinational effect with TC, mexB (PA) (mexB (PA) strain; combined with TC at 1/4 MIC) | EC75, mexY (EC) strain, LVFX (mexY (EC) strain; [3]) |
| --- | --- | --- | --- | --- | --- | --- | --- | --- | --- | --- | --- | --- | --- | --- |
| COc1ccccc1CN1CCN(C(=O)CN2CCN(CCc3cccc(Cl)c3)CC2)CC1 [Example 272, 2-(4-(3-chlorophenethyl)piperazin-1-yl)-1-(4-(2-methoxybenzyl)piperazin-1-yl)ethan-1-one] | B (25 μM<EC75≤100 μM) | B (25 μM<EC75≤100 μM) | S (EC99≤12.5 μM) | S (EC99≤12.5 μM) | – | – | – | – | – | – | – | – | – | – |
| COc1ccccc1CN1CCN(C(=O)CN2CCN(CCc3ccc(F)cc3)CC2)CC1 [Example 277, 2-(4-(4-Fluorophenethyl)piperazin-1-yl)-1-(4-(2-methoxybenzyl)piperazin-1-yl) ethan-1-one and hydrochloride thereof] | B (25 μM<EC75≤100 μM) | B (25 μM<EC75≤100 μM) | B (25 μM<EC99≤100 μM) | B (25 μM<EC99≤100 μM) | – | – | – | – | – | – | – | – | – | – |
| COc1ccccc1CN1CCN(C(=O)CN2CCC(/C=C/c3ccccc3)CC2)CC1 [Example 400, hydrochloride of (E)-1-(4-(2-methoxybenzyl)piperazin-1-yl)-2-(4-styrylpiperidin-1-yl)ethan-1-one] | B (25 μM<EC75≤100 μM) | B (25 μM<EC75≤100 μM) | A (12.5 μM<EC99≤25 μM) | S (EC99≤12.5 μM) | – | – | – | – | – | – | – | – | – | – |
| COc1ccccc1CN1CCN(C(=O)CN2CCC(CCc3ccccc3)(COCc3ccccc3)CC2)CC1 [Example 403, Hydrochloride of 2-(4-((benzyloxy)methyl)-4-phenethylpiperidin-1-yl)-1-(4-(2-methoxybenzyl)piperazin-1-yl)ethan-1-one] | – | B (25 μM<EC75≤100 μM) | S (EC99≤12.5 μM) | S (EC99≤12.5 μM) | – | – | – | – | – | – | – | – | – | – |
| COc1ccccc1CN1CCN(C(=O)CN2CCC(C#Cc3ccccc3)CC2)CC1 [Example 405, Hydrochloride of 1-(4-(2-methoxybenzyl)piperazin-1-yl)-2-(4-(phenylethynyl)piperidin-1-yl)ethan-1-one] | B (25 μM<EC75≤100 μM) | B (25 μM<EC75≤100 μM) | B (25 μM<EC99≤100 μM) | A (12.5 μM<EC99≤25 μM) | – | – | – | – | – | – | – | – | – | – |
| CCOc1cccc(F)c1CN1CCN(C(=O)CN2CCC(C(N)Cc3ccccc3)CC2)CC1 (centres unmarked) [Example 423, hydrochloride of 2-(4-(1-amino-2-phenylethyl)piperidin-1-yl)-1-(4-(2-ethoxy-6-fluorobenzyl)piperazin-1-yl)ethan-1-one] | B (25 μM<EC75≤100 μM) | A (12.5 μM<EC75≤25 μM) | C (100 μM<EC99) | C (100 μM<EC99) | C (100 μM<EC99) | C (100 μM<EC99) | B (25 μM<EC99≤100 μM) | – | – | – | – | – | – | – |
| CCOc1cccc(F)c1CN1CCN(C(=O)[C@H](N)C2CCN(CCc3cc(Cl)ccc3-c3ccnn3C)CC2)CC1 [Example 503, Hydrobromide of (R)-2-amino-2-(1-(5-chloro-2-(1-methyl-1H-pyrazol-5-yl)phenethyl)piperidin-4-yl)-1-(4-(2-ethoxy-6-fluorobenzyl)piperazin-1-yl)ethan-1-one] | – | – | – | – | – | – | – | B (25 μM<EC99≤100 μM) | B (25 μM<EC99≤100 μM) | A (12.5 μM<EC75≤25 μM) | C (100 μM<EC99) | C (100 μM<EC99) | C (100 μM<EC99) | – |
| N[C@@H](C(=O)N1CCN(Cc2nccc3c2OCCO3)CC1)C1CCN(CCc2cc(Cl)ccc2-c2ccccc2)CC1 [Example 520, Hydrobromide of (R)-2-amino-2-(1-(2-(4-chloro-[1,1-biphenyl]-2-yl)ethyl)piperidin-4-yl)-1-(4-((2,3-dihydro-[1,4]dioxino[2,3-c]pyridin-5-yl)methyl)piperazin-1-yl)ethan-1-one] | – | – | – | – | – | – | – | B (25 μM<EC99≤100 μM) | C (100 μM<EC99) | A (12.5 μM<EC75≤25 μM) | C (100 μM<EC99) | C (100 μM<EC99) | C (100 μM<EC99) | A (12.5 μM<EC75≤25 μM) |
| CSc1ccc(CN2CCN(C(=O)[C@H](N)C3CCN(CCc4cc(Cl)ccc4-c4ccccc4)CC3)CC2)s1 [Example 523, Hydrobromide of (R)-2-amino-2-(1-(2-(4-chloro-[1,1-biphenyl]-2-yl)ethyl)piperidin-4-yl)-1-(4-((5-(methylthio)thiophen-2-yl)methyl)piperazin-1-yl)ethan-1-one] | – | – | – | – | – | – | – | B (25 μM<EC99≤100 μM) | B (25 μM<EC99≤100 μM) | – | B (25 μM<EC99≤100 μM) | B (25 μM<EC99≤100 μM) | B (25 μM<EC99≤100 μM) | A (12.5 μM<EC75≤25 μM) |
| CSc1ccccc1CN1CCN(C(=O)[C@H](N)C2CCN(CCc3cc(Cl)ccc3-c3cccc(Cl)c3)CC2)CC1 [Example 552, Hydrobromide of (R)-2-amino-2-(1-(2-(3′,4-dichloro-[1,1-biphenyl]-2-yl)ethyl)piperidin-4-yl)-1-(4-(2-(methylthio)benzyl)piperazin-1-yl)ethan-1-one] | – | – | – | – | – | – | – | B (25 μM<EC99≤100 μM) | S (EC99≤12.5 μM) | A (12.5 μM<EC75≤25 μM) | S (EC99≤12.5 μM) | S (EC99≤12.5 μM) | S (EC99≤12.5 μM) | A (12.5 μM<EC75≤25 μM) |
| CSc1ccccc1CN1CCN(C(=O)[C@H](N)C2CCN(CCc3cc(Cl)ccc3-c3ccccc3Cl)CC2)CC1 [Example 555, Hydrobromide of (R)-2-amino-2-(1-(2-(2′,4-dichloro-[1,1-biphenyl]-2-yl)ethyl)piperidin-4-yl)-1-(4-(2-(methylthio)benzyl)piperazin-1-yl)ethan-1-one] | – | – | – | – | – | – | – | B (25 μM<EC99≤100 μM) | B (25 μM<EC99≤100 μM) | A (12.5 μM<EC75≤25 μM) | B (25 μM<EC99≤100 μM) | B (25 μM<EC99≤100 μM) | A (12.5 μM<EC99≤25 μM) | A (12.5 μM<EC75≤25 μM) |
